Source: patent publication US20080145840A1 (priority 2003, published 2008)
“And” between values parts separate entries of the source, which are not always exact repeats. Identical values can stand only once. Like-named read-outs stand apart in the source and are kept apart here.

Assays:
E. coli MurB [1] = biological target: T1, E. coli MurB (Escherichia coli, UniProt P08373); assay: ITC assay of E. coli MurB activity; type: biochemical
Method: E. coli MurB was diluted in assay buffer (50 mM Tris pH 8.0, 1 mM TCEP, 20 mM KCl, 0.005% Triton X-100) to a final concentration of 1.3 nM. The buffer contained the MurB substrates at the following concentrations in the ITC test cell: 100 μM NADPH and 60 μM UDP-GlcNAc-EP. DMSO was also added at a final concentration of 2.7% (v/v).
(§1) The inhibition of E. coli MurB by (2R)-2-{2-[3-(4-tert-butylphenoxy)phenyl]-4-oxo-1,3-thiazolidin-3-yl} hexanoic acid, a 4-thiazolidinone compound, was studied by the same method. Reactions were carried in 50 mM Tris, pH 8.0, 1 mM TCEP, 20 mM KCl, 0.005% Triton, in the presence of 100 μM NADPH and 60 μM EP. The concentration of MurB was 1.3 nM.

E. coli MurB [2] = biological target: T1, E. coli MurB; assay: Absorbance method measuring NADPH depletion at 340 nm (MurB activity); type: biochemical
Method: as §1
Other kinetic measurements were performed to further characterize E. coli MurB by ITC.

E. coli GyrAB [3] = biological target: T2, E. coli GyrAB (Escherichia coli, UniProt P0AES6); assay: Independent assay of GyrAB enzyme activity using phosphate detection; type: biochemical; settings: read-out: Ki, ADP
E. coli GyrAB [4] = biological target: T2, E. coli GyrAB; assay: ITC assay of E. coli GyrAB ATPase activity; type: biochemical; settings: read-out: Ki, ADP
Method: The titration was started manually after the DP signal was stabilized.
The data were analyzed as follows: the power value (μcal/sec) after each injection is subtracted from the initial power value (before any injection occurs).

E. coli MurC [5] = biological target: T3, E. coli MurC (Escherichia coli, UniProt P17952); assay: biochemical
T3 sequence (P17952 whole entry): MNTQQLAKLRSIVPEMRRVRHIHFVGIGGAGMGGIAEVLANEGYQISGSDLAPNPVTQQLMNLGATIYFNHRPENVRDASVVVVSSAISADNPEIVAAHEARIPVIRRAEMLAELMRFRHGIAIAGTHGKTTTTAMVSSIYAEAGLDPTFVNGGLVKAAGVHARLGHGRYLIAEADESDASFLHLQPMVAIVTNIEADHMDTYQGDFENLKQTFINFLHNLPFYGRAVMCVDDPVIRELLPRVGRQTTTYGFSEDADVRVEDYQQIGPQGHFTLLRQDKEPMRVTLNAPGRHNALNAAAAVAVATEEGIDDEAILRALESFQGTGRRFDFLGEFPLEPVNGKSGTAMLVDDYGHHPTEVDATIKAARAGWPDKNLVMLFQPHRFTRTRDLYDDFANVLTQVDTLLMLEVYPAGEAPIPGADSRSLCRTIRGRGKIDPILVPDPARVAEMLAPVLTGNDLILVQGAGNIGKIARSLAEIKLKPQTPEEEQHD

E. coli MurC [6] = biological target: T3, E. coli MurC; assay: biochemical; remark: listed apart in the source
Method: E. coli MurC was diluted in assay buffer (50 mM Tris pH 8.0, 1 mM Tris (2-carboxyethyl) phosphine hydrochloride (TCEP), 0.01% (w/v) Triton X-100, 20 mM ammonium formate) to a final concentration of 10 nM. […] The titration was started manually after the DP signal was stabilized. A total of 16 injections (2, 2, 4, 4, 4, 4, 8, 8, 16, 16, 32, 32, 32, 32, 32, and 32 μl) were performed. Time spacing in between injections was set at 120 sec for all injections.
All the reactions were carried in 50 mM Tris, pH 8.0, 1 mM TCEP, 0.01% (w/v) Triton, and 20 mM ammonium formate. The final concentration of E. coli MurC was 10 nM. […] The reaction was initiated with the addition of MurC and placed into the test cell. AMP-PCP was dissolved in the buffer described above at a final concentration of 2.8 mM and placed into the titration syringe.

T1 sequence (P08373 whole entry): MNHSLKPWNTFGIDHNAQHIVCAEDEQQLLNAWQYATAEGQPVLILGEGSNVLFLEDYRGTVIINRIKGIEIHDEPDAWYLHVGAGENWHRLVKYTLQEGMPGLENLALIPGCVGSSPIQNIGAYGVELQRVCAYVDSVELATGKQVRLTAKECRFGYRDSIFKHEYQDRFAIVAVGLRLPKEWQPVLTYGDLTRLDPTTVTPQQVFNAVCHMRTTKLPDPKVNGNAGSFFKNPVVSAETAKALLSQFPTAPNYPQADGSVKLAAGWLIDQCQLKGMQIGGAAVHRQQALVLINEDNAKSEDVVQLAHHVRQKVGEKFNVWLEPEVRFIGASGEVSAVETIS

For `CCCC[C@H](C(=O)O)N1C(=O)CSC1c1cccc(Oc2ccc(C(C)(C)C)cc2)c1` (stereo partly drawn) [4-thiazolidinone analogue, (2R)-2-{2-[3-(4-tert-butylphenoxy)phenyl]-4-oxo-1,3-thiazolidin-3-yl} hexanoic acid], the IC50 (E. coli MurB [1]; 1.3 nM MurB, 100 μM NADPH, 60 μM UDP-GlcNAc-EP, read-out: 4-thiazolidinone analogue IC50) was 154 µM and the IC50 (E. coli MurB [2]; NADPH depletion at 340 nm, read-out: 4-thiazolidinone analogue IC50) was 101 µM.

With `Nc1ncnc2c1ncn2[C@@H]1O[C@H](COP(=O)(O)OP(=O)(O)O)[C@@H](O)[C@H]1O` [ADP] the Ki (E. coli GyrAB [3]) was 18 µM and the Ki (E. coli GyrAB [4]) was 18 µM.

With `Nc1ncnc2c1ncn2[C@@H]1O[C@H](COP(=O)(O)OP(=O)(O)CP(=O)(O)O)[C@@H](O)[C@H]1O` [AMP-PCP, β,γ-Methyleneadenosine 5′-triphosphate] the IC50 (E. coli MurC [5]; AMP-PCP IC50) was 40 µM and 35 µM and the IC50 (E. coli MurC [6]) was 27 µM.

Work on `NC(=O)C1=CN([C@@H]2O[C@H](COP(=O)(O)OP(=O)(O)OC[C@H]3O[C@@H](n4cnc5c(N)ncnc54)[C@H](OP(=O)(O)O)[C@@H]3O)[C@@H](O)[C@H]2O)C=CC1` [NADPH] yielded a Km (E. coli MurB [1]; read-out: KM, NADPH) of 9 µM and a Km (E. coli MurB [2]; read-out: KM, NADPH) of 9 µM.

With `C=C(O[C@H]1[C@H](O)[C@@H](CO)O[C@H](OP(=O)(O)OP(=O)(O)OC[C@H]2O[C@@H](n3ccc(=O)[nH]c3=O)[C@H](O)[C@@H]2O)[C@@H]1NC(C)=O)C(=O)O` [UDP-GlcNAc−EP, uridine diphosphate-GlcNAc-enolpyruvate] the Km (E. coli MurB [1]; read-out: KM, UDP-GlcNAc-EP) was 8 µM and the Km (E. coli MurB [2]; read-out: KM, UDP-GlcNAc-EP) was 6 µM.

In the case of `CC(=O)N[C@H]1[C@@H](OP(=O)(O)OP(=O)(O)OC[C@H]2O[C@@H](n3ccc(=O)[nH]c3=O)[C@H](O)[C@@H]2O)O[C@H](CO)[C@@H](O)[C@@H]1O[C@H](C)C(=O)O` [UDP-MurNAc], the Km (E. coli MurC [5]; Phosphate detection, read-out: KM, UDP-MurNAc) is reported as 19 µM and the Km (E. coli MurC [6]; ITC, read-out: KM, UDP-MurNAc) is reported as 21 µM.
